Data reported in ChEMBL document CHEMBL1139683, “Pyridone derivatives as potent, orally bioavailable VLA-4 integrin antagonists” (Bioorg Med Chem Lett, 2006).

Key:
Rattus norvegicus = species: Rattus norvegicus; assay: Dose normalised AUC (0-8 hrs) in rat; format: ADME, organism-based; set-up: time < 8 hr; conditions: in vivo
Integrin alpha-4/beta-1 = Integrin alpha-4/beta-1 (Homo sapiens, UniProt P05556+P13612); assay: Inhibition of integrin alpha-4-beta-1 receptor expressed in Jurkat J6 cells by SPA; format: cell-based
[1] = Half life in rat; format: ADME, organism-based; conditions: in vivo
[2] = Volume of distribution of steady state in rat; format: ADME, organism-based; conditions: in vivo, read-out: Vss
[3] = Bioavailability in Sprague-Dawley rat at 1 mg/kg, iv and 3 mg/kg, po; format: ADME, organism-based; conditions: in vivo
[4] = Clearance in iv dosed rat; format: ADME, organism-based; conditions: in vivo

Sequence of Integrin alpha-4/beta-1 (P05556 whole entry): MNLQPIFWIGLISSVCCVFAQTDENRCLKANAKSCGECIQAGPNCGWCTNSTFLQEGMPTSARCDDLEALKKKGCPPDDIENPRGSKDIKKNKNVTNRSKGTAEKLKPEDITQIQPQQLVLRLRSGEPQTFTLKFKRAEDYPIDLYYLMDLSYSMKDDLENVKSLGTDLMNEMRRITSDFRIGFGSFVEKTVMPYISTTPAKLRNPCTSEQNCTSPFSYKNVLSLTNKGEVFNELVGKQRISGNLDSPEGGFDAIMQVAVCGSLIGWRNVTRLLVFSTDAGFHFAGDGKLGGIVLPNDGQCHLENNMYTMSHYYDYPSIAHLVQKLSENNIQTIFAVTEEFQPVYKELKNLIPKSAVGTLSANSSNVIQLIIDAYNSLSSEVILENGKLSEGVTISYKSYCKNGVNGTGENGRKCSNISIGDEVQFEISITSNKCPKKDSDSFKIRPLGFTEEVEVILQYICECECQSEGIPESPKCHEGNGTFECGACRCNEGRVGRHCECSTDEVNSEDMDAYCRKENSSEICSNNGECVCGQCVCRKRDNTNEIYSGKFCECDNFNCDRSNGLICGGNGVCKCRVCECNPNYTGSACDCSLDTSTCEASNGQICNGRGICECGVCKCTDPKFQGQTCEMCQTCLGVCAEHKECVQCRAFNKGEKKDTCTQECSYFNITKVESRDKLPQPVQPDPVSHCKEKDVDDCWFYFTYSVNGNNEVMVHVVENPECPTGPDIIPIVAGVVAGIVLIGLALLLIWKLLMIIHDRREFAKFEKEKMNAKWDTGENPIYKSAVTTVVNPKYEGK
Sequence of Integrin alpha-4/beta-1 (P13612 whole entry): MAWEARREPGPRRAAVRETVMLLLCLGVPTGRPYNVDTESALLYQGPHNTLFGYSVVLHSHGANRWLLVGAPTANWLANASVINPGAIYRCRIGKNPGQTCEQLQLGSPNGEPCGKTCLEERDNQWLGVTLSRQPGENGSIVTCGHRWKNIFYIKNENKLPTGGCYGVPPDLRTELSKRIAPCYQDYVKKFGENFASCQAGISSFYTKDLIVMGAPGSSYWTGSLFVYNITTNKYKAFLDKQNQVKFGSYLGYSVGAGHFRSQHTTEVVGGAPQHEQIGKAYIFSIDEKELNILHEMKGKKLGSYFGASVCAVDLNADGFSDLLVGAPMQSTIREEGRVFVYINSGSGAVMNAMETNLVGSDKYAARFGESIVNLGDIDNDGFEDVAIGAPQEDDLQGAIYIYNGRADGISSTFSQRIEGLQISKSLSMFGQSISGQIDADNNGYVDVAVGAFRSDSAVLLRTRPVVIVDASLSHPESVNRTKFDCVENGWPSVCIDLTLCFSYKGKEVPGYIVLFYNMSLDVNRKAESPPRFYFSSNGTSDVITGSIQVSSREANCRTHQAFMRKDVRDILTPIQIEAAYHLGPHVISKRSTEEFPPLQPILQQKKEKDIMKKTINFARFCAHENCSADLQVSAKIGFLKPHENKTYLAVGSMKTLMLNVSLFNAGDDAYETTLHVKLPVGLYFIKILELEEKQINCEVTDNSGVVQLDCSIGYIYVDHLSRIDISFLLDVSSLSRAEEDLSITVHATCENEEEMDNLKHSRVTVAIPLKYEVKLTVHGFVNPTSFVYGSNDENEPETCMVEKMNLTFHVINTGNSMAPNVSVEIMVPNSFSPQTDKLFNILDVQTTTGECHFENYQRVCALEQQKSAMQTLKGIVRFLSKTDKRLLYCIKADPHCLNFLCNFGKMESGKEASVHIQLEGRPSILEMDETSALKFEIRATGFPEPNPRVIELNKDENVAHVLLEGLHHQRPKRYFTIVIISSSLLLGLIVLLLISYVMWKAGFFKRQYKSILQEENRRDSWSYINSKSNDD

SMILES	Ki (Integrin alpha-4/beta-1) [nM]	other results
COc1cc(-c2cccn(Cc3ccc(CCC(=O)O)cc3)c2=O)ccc1NC(=O)Nc1ccccc1C		AUC (Rattus norvegicus): 6 kg·min/L
Cc1ccccc1NC(=O)Nc1ccc(-c2cccn(Cc3ccc(CCC(=O)O)cc3)c2=O)cc1	2.51	AUC (Rattus norvegicus): 3 kg·min/L
COc1cc(-c2cccn(Cc3ccc(CCC(=O)O)cc3)c2=O)ccc1NC(=O)Nc1cc(C)ccc1C	7.94	
COc1cc(-c2cccn(Cc3ccc([C@@H](C)CC(=O)O)cc3)c2=O)ccc1NC(=O)Nc1ccccc1C	1	
Cc1ccccc1NC(=O)Nc1ccc(-c2cccn(Cc3ccc([C@H](C)CC(=O)O)cc3)c2=O)cc1	1	half-life [1]: 1.3 h; Vd [2]: 0.6 L/kg; AUC (Rattus norvegicus): 14 kg·min/L; bioavailability [3]: 22%; clearance [4]: 16 mL/min/kg
COc1cc(-c2cccn(Cc3ccc(CCC(=O)O)cc3)c2=O)ccc1NC(=O)Nc1ccccc1Br	5.01	
COc1cc(-c2cccn(Cc3ccc(CCC(=O)O)cc3)c2=O)ccc1NC(=O)Nc1ccc(C)cc1C	25.1	
Cc1ccccc1NC(=O)Nc1ccc(-c2cccn(Cc3ccc([C@@H](C)CC(=O)O)cc3)c2=O)cc1C	20	
COc1cc(-c2cccn(Cc3ccc(CCC(=O)O)cc3)c2=O)ccc1NC(=O)Nc1c(C)cccc1C	2	
COc1cc(-c2cccn(Cc3ccc(CCC(=O)O)cc3)c2=O)ccc1NC(=O)Nc1ccccc1C(C)C	316	
COc1cc(-c2cccn(Cc3ccc(CCC(=O)O)cc3)c2=O)ccc1NC(=O)Nc1ccccc1NC(C)=O	6.31	
Cc1ccccc1NC(=O)Nc1ccc(-c2cccn(Cc3ccc([C@@H](C)CC(=O)O)cc3)c2=O)cc1Cl	25.1	
COc1ccccc1NC(=O)Nc1ccc(-c2cccn(Cc3ccc(CCC(=O)O)cc3)c2=O)cc1OC	6.31	
COc1cc(-c2cccn(Cc3ccc(CCC(=O)O)cc3)c2=O)ccc1NC(=O)Nc1cccc(C)c1C	25.1	
Cc1ccccc1NC(=O)Nc1ccc(-c2cccn(Cc3ccc([C@@H](C)CC(=O)O)cc3)c2=O)cc1	2.51	
Cc1ccccc1NC(=O)Nc1ccc(-c2cccn(Cc3ccc([C@H](C)CC(=O)O)cc3)c2=O)cc1Cl	0.794	
CCc1cc(NC(=O)Nc2ccccc2C)ccc1-c1cccn(Cc2ccc([C@@H](C)CC(=O)O)cc2)c1=O	50.1	
Cc1ccccc1NC(=O)Nc1ccc(-c2cccn(Cc3ccc([C@H](C)CC(=O)O)cc3)c2=O)cc1C	2.51	
COc1cc(-c2cccn(Cc3ccc(CCC(=O)O)cc3)c2=O)ccc1NC(=O)Nc1ccccc1	1.58	
COc1cc(-c2cccn(Cc3ccc([C@H](C)CC(=O)O)cc3)c2=O)ccc1NC(=O)Nc1ccccc1C	0.794	half-life [1]: 1.4 h; Vd [2]: 0.6 L/kg; AUC (Rattus norvegicus): 154 kg·min/L; bioavailability [3]: 121%; clearance [4]: 9 mL/min/kg

Further lines, with some results ahead:

Ki (Integrin alpha-4/beta-1) [nM]	SMILES	other results
2.51	Cc1ccccc1NC(=O)Nc1ccc(-c2cccn(Cc3ccc([C@@H](C)CC(=O)O)cc3)c2=O)c(C)c1	
2	Cc1ccccc1NC(=O)Nc1ccc(-c2cccn(Cc3ccc([C@@H](C)CC(=O)O)cc3)c2=O)c(Cl)c1	
1	Cc1ccccc1NC(=O)Nc1ccc(-c2cccn(Cc3ccc([C@H](C)CC(=O)O)cc3)c2=O)c(C)c1	
3.98	Cc1ccccc1NC(=O)Nc1ccc(-c2cccn(Cc3ccc([C@H](C)CC(=O)O)cc3)c2=O)c(OC(F)(F)F)c1	
20	Cc1ccccc1NC(=O)Nc1ccc(-c2cccn(Cc3ccc([C@@H](C)CC(=O)O)cc3)c2=O)c(OC(F)(F)F)c1	
5.01	CCOc1cc(NC(=O)Nc2ccccc2C)ccc1-c1cccn(Cc2ccc([C@@H](C)CC(=O)O)cc2)c1=O	
1	Cc1ccccc1NC(=O)Nc1ccc(-c2cccn(Cc3ccc([C@H](C)CC(=O)O)cc3)c2=O)c(Cl)c1	
2	CCOc1cc(NC(=O)Nc2ccccc2C)ccc1-c1cccn(Cc2ccc([C@H](C)CC(=O)O)cc2)c1=O	
6.31	CCc1cc(NC(=O)Nc2ccccc2C)ccc1-c1cccn(Cc2ccc([C@H](C)CC(=O)O)cc2)c1=O	
